Like-named read-outs stand apart in the source and are kept apart here.
Biological target: T1, TRPC3 (Homo sapiens, UniProt Q13507)
T1 sequence (Q13507 1-921): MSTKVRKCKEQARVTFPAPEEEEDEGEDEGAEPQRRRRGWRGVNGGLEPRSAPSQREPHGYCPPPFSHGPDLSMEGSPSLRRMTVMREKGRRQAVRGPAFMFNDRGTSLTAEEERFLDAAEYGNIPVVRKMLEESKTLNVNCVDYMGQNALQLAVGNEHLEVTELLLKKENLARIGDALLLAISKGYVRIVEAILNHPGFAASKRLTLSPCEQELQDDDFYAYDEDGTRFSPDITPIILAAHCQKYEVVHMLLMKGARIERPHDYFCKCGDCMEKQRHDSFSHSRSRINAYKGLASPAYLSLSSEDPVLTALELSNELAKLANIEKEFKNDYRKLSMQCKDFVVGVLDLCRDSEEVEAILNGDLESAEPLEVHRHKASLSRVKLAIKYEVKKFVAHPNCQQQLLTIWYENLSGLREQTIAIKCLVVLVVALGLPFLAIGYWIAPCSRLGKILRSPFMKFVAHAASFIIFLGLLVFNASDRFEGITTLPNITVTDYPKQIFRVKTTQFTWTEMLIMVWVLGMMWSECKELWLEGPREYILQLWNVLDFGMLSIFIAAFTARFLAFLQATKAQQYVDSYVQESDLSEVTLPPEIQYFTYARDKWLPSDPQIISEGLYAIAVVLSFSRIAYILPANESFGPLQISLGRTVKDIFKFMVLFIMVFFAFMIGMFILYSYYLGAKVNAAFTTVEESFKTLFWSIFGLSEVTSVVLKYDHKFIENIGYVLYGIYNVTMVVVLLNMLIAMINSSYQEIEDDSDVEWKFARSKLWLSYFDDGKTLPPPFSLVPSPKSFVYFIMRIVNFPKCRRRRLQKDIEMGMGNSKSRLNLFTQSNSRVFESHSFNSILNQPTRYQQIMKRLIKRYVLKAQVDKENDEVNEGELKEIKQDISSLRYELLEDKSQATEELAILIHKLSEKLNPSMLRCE
Experiment: whole-cell patch clamp of HEK293 cells transfected with hTRPC3, currents activated by GSK1702934A
Type: cell-based
Parameters: expressed in transfected cells; host or cells: HEK293 (CRL-1573), transient transfection, pMO vector
How it was run: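 Whole-cell patch clamp on HEK293 cells co-transfected with hTRPC3 and GFP, recorded 18-24 h post-transfection. Bath held 140 mM NaCl, pH 7.4; pipette held 140 mM CsCl/5 mM EGTA, pH 7.2. Currents came from 1-s ramps −100 to 100 mV with GSK1702934A; compounds screened at 10 μM, IC50 from single-cell dose points.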

## CCNC(=O)c1cnn(-c2ccc(-n3ccc(Cl)c(Cl)c3=O)cc2)c1C(F)(F)F [Compound 22]
10 μM compound in presence of agonist GSK1702934A, HEK293 whole-cell peak current, read-out: hTRPC3 % Inhibition at 10 μM (mean ± SEM)
  inhibition at 10 µM: 89 ± 1.14%
Agonist GSK1702934A, HEK293 whole-cell patch clamp, read-out: hTRPC3 IC50 (μM, mean ± SEM)
  IC50: 0.37 ± 0.03 µM
Same value expressed in ng/ml, read-out: TRPC3 IC50 displayed in FIG. 6 (converted)
  IC50: 0.51 µM
Value shown in brain concentration figure, read-out: TRPC3 IC50 displayed in FIG. 6 (converted)
  IC50: 0.51 µM

From US20230265068A1, “TRANSIENT RECEPTOR POTENTIAL CANONICAL 3 INHIBITORS AND METHODS OF USE THEREOF” (University of Tennessee Research Foundation, priority 2020, published 2023)
